According to US20100266696A1, “Organic Compounds” (priority 2007, published 2010):

Assays:
[1] = Laser light diffraction particle size analysis of high pressure homogenised glycopyrrolate suspension (Example 1); format: physicochemical; details: suspension in acetone after homogenisation at 950 bar, 48 passes; ultrasonication 60 W 480 s
Procedure: The suspension is then homogenised at a pressure drop of 950 bar, a reflux temperature of about 9-12.5° C., and a mixing/reflux vessel jacket temperature of 2° C. The piston pump stroke frequency is about 60, and the process is run for a total of 60 minutes, which is equivalent to a total of 48 passes or homogenisation cycles. Samples are also taken as in process control after 15 (12 passes) and 30 (24 passes) minutes, and analyzed along with the final product.
(§1) The crystallites appear to break into fairly regular, rectangularly shaped fragments of smaller size in the early stages of homogenization, which are subsequently comminuted and smoothed further. Particle size decreases further at an increasing number of homogenization cycles, after 24 passes the average particle size is around 1 μm already, and the particle edges are noticeably more rounded than initially or after only 12 passes. No significant changes are observed in particles isolated after 24 and 48 passes through the homogeniser.

[2] = final product after spray drying; ultrasonication 60 W 480 s
Procedure: The spray dryer is operated at an outlet temperature of around 75-78° C., i.e., above the boiling point of neat acetone, in order to avoid solvent condensation in the spray tower. The inlet temperature is set to 100° C., and the experiment initiated by spraying pure solvent. The spray rate is set to a flow of 5 mL/min using a Büchi lab scale spray dryer, with the aspirator operated at 100%. The nitrogen flow rate is kept constant at 600-700 l/h. At these operating conditions, the homogenised suspension is sprayed, and a dry powder is collected in a cyclone followed by a cloth filter.
Once again ultrasonication at 60 W is applied for 480 seconds to break any loose aggregates in the product prior to starting the particle size distribution measurement.
The final product after spray drying is re-characterized after 25 days of storage at ambient conditions as well as at 4° C.

[3] = Scanning electron microscopy of glycopyrrolate materials (Example 1); format: physicochemical
Description: as §1
(§2) Particles still appear as rectangularly shaped fragments with smoothed edges and an average size around or slightly above 1 μm. The specific surface area of the dried suspension (analysed by adsorption analysis, BET surface measurement) is determined to be 4.0 m^2/g.

[4] = BET specific surface area (adsorption analysis); format: physicochemical
Procedure: as §2
The specific surface area of the final product by BET analysis is determined to be 4.0 m2/g.

[5] = X-ray powder diffraction and DSC crystallinity; format: physicochemical; details: final product after spray drying
[6] = Aggregation/agglomeration tendency: jet-milled vs high pressure homogenised and dried (Example 4); format: physicochemical
Description: The mill is equipped with 3 nozzles of 1.9 mm diameter. […] As a consequence, the material has to be co-milled with a force control agent such as magnesium stearate in order to obtain a freely flowable non-agglomerating micronised drug substance.

In the case of `C[N+]1(C)CCC(OC(=O)C(O)(c2ccccc2)C2CCCC2)C1.[Br-]` (stereo not shown) [glycopyrrolate, 3-[(cyclopentyl-hydroxyphenylacetyl)oxy]-1,1-dimethyl-pyrrolidinium bromide], the “×10 mean particle size” value [1] is reported as 0.6 μm, the “×50 mean particle size” value [1] is reported as 1.3 μm and the “×90 mean particle size” value [1] is reported as 3.1 μm. For the same compound, the “mean particle size, ×50” value [2] was 1.7 μm, the “×90 value” [2] was 3.6 μm and the average particle size ([3]; after 24 passes of homogenisation) was “around 1 μm”. The “average size by scanning electron microscopy” value ([3]; after homogenisation step) was “below 5 μm”, the “average size by SEM” value ([3]; spray dried glycopyrrolate) was ~1 μm and the “specific surface area (BET)” value ([4]; dried suspension) was 4.0 m^2/g. The “specific surface area by BET analysis” value ([4]; final product) was 4.0 m2/g, the “crystallinity (XPRD and DSC) compared to coarse drug substance” value [5] was “no change in crystallinity” and the “tendency to aggregate or agglomerate” value ([6]; high pressure homogenised and subsequently dried material (Examples 1, 2 and 3)) was “no tendency to aggregate or agglomerate”. For the same compound, the “tendency to aggregate and agglomerate” value ([6]; micronised in fluid bed opposed jet mill) was “high tendency to aggregate and agglomerate”.
